The source of these data is ChEMBL document CHEMBL3769352, “Design, synthesis, and testing of an isoquinoline-3-carboxylic-based novel anti-tumor lead” (Bioorg Med Chem Lett, 2015).

Where only a bound is given, the exact number is not on record here.

The test system of one data set is KB. The data set is described as follows: Cytotoxicity against human KB cells after 48 hrs by MTT assay. Type of data set: functional, cell-based. In general terms: Tetrazolium dyes change colour on reduction, which living cells bring about.
Another data set concerns HeLa. The data set is described as follows: Cytotoxicity against human HeLa cells after 48 hrs by MTT assay. Type of data set: functional, cell-based.
The test system of data set [1] is CCRF S-180. The data set is described as follows: Antitumor activity against mouse S180 cells allografted in Swiss mouse assessed as tumour weight at 8 umol/kg, sc administered every day for 12 days measured on fourteenth day (reference value: 1.662 +/- 0.355 g). Type of data set: functional.
The nature of data set [2]: Cytotoxicity against human Bel7402 cells after 48 hrs by MTT assay. The format is functional, cell-based. Particulars: Bel-7402, 48 h.
The test system of data set [3] is Mus musculus. The data set is described as follows: Toxicity in Swiss mouse allografted with mouse S180 cells assessed as effect on kidney to body weight ratio at 2 umol/kg, sc administered every day for 12 days measured on fourteenth day. Type of data set: organism-based, CCRF S-180. Particulars: in vivo, 288 h.
Data set [4] concerns Mus musculus. The data set is described as follows: Toxicity in Swiss mouse allografted with mouse S180 cells assessed as effect on heart to body weight ratio at 2 umol/kg, sc administered every day for 12 days measured on fourteenth day. The format is organism-based, CCRF S-180. Particulars: in vivo, 288 h.
The test system of the next data set is MCF7. The data set is described as follows: Cytotoxicity against human MCF7 cells after 48 hrs by MTT assay. The format is functional, cell-based. Particulars: MCF7, 48 h.
Data set [5] relates to Mus musculus. The data set is described as follows: Toxicity in Swiss mouse allografted with mouse S180 cells assessed as effect on liver to body weight ratio at 2 umol/kg, sc administered every day for 12 days measured on fourteenth day. The format is organism-based, CCRF S-180. The following applies: in vivo, 288 h.
Data set [6] relates to Mus musculus. The data set is described as follows: Toxicity in Swiss mouse allografted with mouse S180 cells assessed as effect on brain to body weight ratio at 2 umol/kg, sc administered every day for 12 days measured on fourteenth day. The format is organism-based, CCRF S-180. Particulars: in vivo, 288 h.
For data set [7], the system named is Mus musculus. The data set is described as follows: Toxicity in Swiss mouse allografted with mouse S180 cells assessed as spleen weight index at 2 umol/kg, sc administered every day for 12 days measured on fourteenth day. The format is organism-based, CCRF S-180. Particulars: in vivo, 288 h.
In data set [8] the test system is Mus musculus. The data set is described as follows: Toxicity in Swiss mouse allografted with mouse S180 cells assessed as body weight at 2 umol/kg, sc administered every day for 12 days measured every day during compound administration. The format is organism-based, CCRF S-180. Particulars: in vivo, 288 h.
Another data set concerns HepG2. Put plainly: Cytotoxicity against human HepG2 cells after 48 hrs by MTT assay. Type of data set: functional, cell-based. The following applies: HepG2, 48 h.
Data set [9] relates to Mus musculus. The data set is described as follows: Toxicity in Swiss mouse allografted with mouse S180 cells assessed as effect on spleen to body weight ratio at 2 umol/kg, sc administered every day for 12 days measured on fourteenth day. Type of data set: organism-based, CCRF S-180. Particulars: in vivo, 288 h.
A further data set concerns A2780. The data set is described as follows: Cytotoxicity against human A2780 cells after 48 hrs by MTT assay. The following applies: A2780, 48 h. Type of data set: functional, cell-based.
The subject of data set [10] is Mus musculus. Put plainly: Toxicity in Swiss mouse allografted with mouse S180 cells assessed as effect on liver to body weight ratio at 8 umol/kg, sc administered every day for 12 days measured on fourteenth day. The format is organism-based, CCRF S-180. Particulars: in vivo, 288 h.
Data set [11] concerns CCRF S-180. The data set is described as follows: Antitumor activity against mouse S180 cells allografted in Swiss mouse assessed as tumour weight at 2 umol/kg, sc administered every day for 12 days measured on fourteenth day (reference value: 1.662 +/- 0.355 g). Type of data set: functional.
For data set [12], the system named is Mus musculus. Put plainly: Toxicity in Swiss mouse allografted with mouse S180 cells assessed as spleen weight index at 8 umol/kg, sc administered every day for 12 days measured on fourteenth day. The following applies: in vivo, 288 h. The format is organism-based, CCRF S-180.
In data set [13] the test system is Mus musculus. Put plainly: Toxicity in Swiss mouse allografted with mouse S180 cells assessed as effect on heart to body weight ratio at 8 umol/kg, sc administered every day for 12 days measured on fourteenth day. Type of data set: organism-based, CCRF S-180. The following applies: in vivo, 288 h.
Data set [14] concerns Mus musculus. Put plainly: Toxicity in Swiss mouse allografted with mouse S180 cells assessed as effect on brain to body weight ratio at 8 umol/kg, sc administered every day for 12 days measured on fourteenth day. The format is organism-based, CCRF S-180. Particulars: in vivo, 288 h.
For data set [15], the system named is Mus musculus. Put plainly: Toxicity in Swiss mouse allografted with mouse S180 cells assessed as effect on body weight at 8 umol/kg, sc administered every day for 12 days measured every day during compound administration. Type of data set: organism-based, CCRF S-180. The following applies: in vivo, 288 h.
Data set [16] relates to Mus musculus. The data set is described as follows: Toxicity in Swiss mouse allografted with mouse S180 cells assessed as effect on spleen to body weight ratio at 8 umol/kg, sc administered every day for 12 days measured on fourteenth day. Type of data set: organism-based, CCRF S-180. The following applies: in vivo, 288 h.
Data set [17] has as its system Mus musculus. Put plainly: Toxicity in Swiss mouse allografted with mouse S180 cells assessed as effect on kidney to body weight ratio at 8 umol/kg, sc administered every day for 12 days measured on fourteenth day. The format is organism-based, CCRF S-180. The following applies: in vivo, 288 h.
Data set [18] relates to Mus musculus. Put plainly: Toxicity in Swiss mouse allografted with mouse S180 cells assessed as reduction in liver to body weight ratio at 2 umol/kg, sc administered every day for 12 days measured on fourteenth day. Type of data set: organism-based, CCRF S-180. The following applies: in vivo, 288 h.
In data set [19] the test system is Mus musculus. Put plainly: Toxicity in Swiss mouse allografted with mouse S180 cells assessed as reduction in spleen weight index at 2 umol/kg, sc administered every day for 12 days measured on fourteenth day. The format is organism-based, CCRF S-180. The following applies: in vivo, 288 h.

`O=C(O)c1cc2ccccc2cn1`: the IC50 (in the data set on KB; with HeLa; in [2]; in the data set with MCF7; in the data set with HepG2; in the data set on A2780) was more than 100 µM each time. Also, the Activity in the data set on CCRF S-180 [1] is 1.104 g; in the data set with Mus musculus [3], “Non-toxic”; with Mus musculus [4] it was “Non-toxic”; in the data set on Mus musculus [5] it was “Non-toxic”; with Mus musculus [6], “Non-toxic”; in the data set on Mus musculus [7], “Non-toxic”. Also, the Activity was 33 g in the data set with Mus musculus [8] and “Non-toxic” in the data set with Mus musculus [9].
Consider `O=C(NCCN(CCNC(=O)c1cc2ccccc2cn1)CCNC(=O)c1cc2ccccc2cn1)c1ccccc1`, for which the IC50 (commonly the concentration that inhibits the measured activity by half) with KB amounted to 75.2 µM; in the data set on HeLa, 33.5 µM; in data set [2], 87.4 µM; in the data set on MCF7 it was 25 µM; with HepG2 it was 38.4 µM; in the data set on A2780, 33.6 µM. For the same compound, the Activity result is “Non-toxic” with Mus musculus [10]; 0.952 g with CCRF S-180 [11]; “Non-toxic” in the data set with Mus musculus [12]; “Non-toxic” in the data set on Mus musculus [13]; “Non-toxic” in the data set with Mus musculus [14]; 33 g with Mus musculus [15]. For the same compound, the Activity result in the data set on Mus musculus [16] and in the data set on Mus musculus [17] was “Non-toxic” in each case.
As to `COc1cccc2c1C(=O)c1c(O)c3c(c(O)c1C2=O)C[C@@](O)(C(=O)CO)C[C@@H]3O[C@H]1C[C@H](N)[C@H](O)[C@H](C)O1` [DOXORUBICIN], the IC50 in the data set on KB came out at 0.13 µM; in the data set on HeLa it was 0.6 µM; in data set [2] it was 1.36 µM; with MCF7, 0.16 µM; in the data set with HepG2, 0.58 µM; in the data set with A2780, 0.27 µM. The Activity is listed as 0.401 g in the data set with CCRF S-180 [11], “Toxic” with Mus musculus [18], 24 g with Mus musculus [8] and “Toxic” in the data set with Mus musculus [19].
